Assay [1] is described as follows: Inhibition of recombinant PFK1 (unknown origin) extracted from baculovirus-infected Sf9 cells incubated for 45 min by ADP-Glo kinase assay. Also noted: species or system Homo sapiens. (In general: In ADP-Glo the light output rises with the ADP produced.)
Assay [2] deals with HeLa. Nature of the assay: Effect on mitochondrial respiration in human HeLa cells assessed as increase in OCR/ECAR ratio incubated for 24 hrs by XFe96 extracellular flux analyzer assay. The class given is functional, cell-based.

Structures are written as SMILES. Bounds are passed on as bounds.

In general, IC50 refers to the concentration that gives 50% inhibition. As to `O=C(O)[C@@H]1C2C=CC(C2)[C@@H]1C(=O)N1CCc2c([nH]c3ccccc23)[C@H]1C(F)(F)F` (stereo partly specified), the IC50 in assay [1] is above 100 µM.
Regarding `O=C(O)[C@H]1C2C=CC(C2)[C@H]1C(=O)N1CCc2c([nH]c3ccccc23)[C@H]1C(F)(F)F` (stereo partly specified), the IC50 in assay [1] was 2.1 µM. Also, the Activity result in assay [2] is “Active; Significantly Increased”.
`O=C(O)[C@H]1C2C=CC(C2)[C@H]1C(=O)N1CCc2c([nH]c3ccccc23)[C@@H]1C(F)(F)F` (stereo partly specified): in assay [1], the IC50 was 25 µM.
Take `O=C(O)C1C2C=CC(C2)C1C(=O)N1CCc2c([nH]c3ccccc23)C1C(F)(F)F` (stereo unspecified): the IC50 in assay [1] is 2.7 µM.
Same read-out and setting: then `O=C(O)[C@@H]1C2C=CC(C2)[C@@H]1C(=O)N1CCc2c([nH]c3ccccc23)[C@@H]1C(F)(F)F` (stereo partly specified), with 4.7 µM.

These data come from ChEMBL document CHEMBL6121030, “Asymmetric Synthesis, Structure Determination, and Biologic Evaluation of Isomers of TLAM as PFK1 Inhibitors” (ACS Med Chem Lett, 2025).
